Assay results taken from PubChem BioAssay (NCI).
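Step 1: Grow cells in 96-well plates. Step 2: Expose to compound for 48 hours at 5 concentrations. Step 3: Interpolate endpoints linearly; if unreached, use highest concentration. Here, GI50 denotes the concentration required for 50% inhibition of growth. TGI marks complete inhibition of growth.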

Each molecule was assayed on OVCAR-5 ovarian (assay: inhibition of tumour cell growth, NCI panel, 48 h).

Row | SMILES | TGI | GI50
1 | COC(=O)C12C3C4C5(C(=O)OC)C(C1C35C(=O)N(C(C)C)C(C)C)C42C(=O)N(C(C)C)C(C)C (configuration not stated) | > 50 µM | –
2 | CC(=O)O[C@@H]1C[C@]2(C(C)C)O[C@@]1(C)[C@@H]1CCC(C)=C1[C@@H]2OC(=O)/C=C/c1ccccc1 | > 100 µM | > 100 µM
3 | O=C1CSC(Cc2nc3ccccc3[nH]2)=N1 | 57.5 µM | –
4 | O=C(Nc1cccc(Cl)c1Cl)c1cccc(NC2=C(Cl)C(=O)N(Cc3ccccc3)C2=O)c1 | > 100 µM | 89.5 µM
5 | O=C(/C=C/c1ccccc1)/C=C/c1ccccc1 | > 100 µM | –
6 | N#C/C(=C\c1ccc(O)c(O)c1)C(N)=O | > 100 µM | –
7 | COc1cc2c(cc1OC)C13CCN4CC5=CCOC6CC(=O)N2C1C6C5CC43O (configuration not stated) | > 100 µM | –
8 | N#CC(C#N)=c1[nH]c2cccc3c2-c2c(cccc2c3=C(C#N)C#N)[nH]1 | > 100 µM | –

These molecules were tested on RXF 393 renal (assay: inhibition of tumour cell growth, NCI panel, 48 h).

Row | SMILES | GI50 | TGI
9 | CC(=O)Oc1ccccc1C(=O)N=C1[Se]CCN1C(=O)c1ccccc1OC(C)=O | 0.355 µM | 1.51 µM
10 | O=S(O)CCCCSSCc1ccccc1CSSCCCCS(=O)O | – | 22.8 µM
11 | CCOC(=O)c1[nH]c(COC(C)=O)c(CCCOC(C)=O)c1CCCOC(C)=O | – | > 100 µM
12 | O=C(Nc1ccc([N+](=O)[O-])cc1)C1C(=O)C(=O)N(c2ccc([N+](=O)[O-])cc2)C1=O (configuration not stated) | – | > 100 µM
13 | Cc1cn2c(/C=C3/C(=O)Nc4ccccc43)c(-c3ccc(Cl)cc3)nc2s1 | 3.72 µM | 12.9 µM
14 | O=C(CCC/C(CC(=O)c1ccc(Br)cc1)=N\O)Nc1ccccc1 | – | > 100 µM
15 | O=C(/C=C/c1c(O)ccc2ccccc12)c1ccc2ccccc2c1 | – | > 100 µM
16 | CCOC(=O)C1N(S(=O)(=O)c2ccc(C)cc2)CCC12C(c1ccc(OC)cc1)NC1CCCCC12 (configuration not stated) | – | > 100 µM
17 | COc1ccccc1NC(=O)C1=C(C)NC(C)=C(C(=O)Nc2ccccc2OC)C1c1ccc([N+](=O)[O-])cc1 | – | > 100 µM
18 | O=C(CSc1nnc(-c2ccccc2NC(=O)C(F)(F)F)c(=O)[nH]1)NC(=O)Nc1ccccc1 | – | > 100 µM
19 | COC(=O)/C=C/C1C(C(=O)OC)C2(C(=O)OC)CCC1(C(=O)OC)N2 (configuration not stated) | – | > 100 µM
20 | CC(C)(C)N1CC2(CCCCC2)C1=O | – | > 100 µM
21 | CC(=O)c1c(CBr)n([O-])c2ccccc2[n+]1=O | 15.3 µM | 32.6 µM
22 | C#CC(=O)Nc1cccc(Nc2nc3c(c(NCc4ccccc4)n2)CCCC3)c1 | 0.0389 µM | 0.239 µM
23 | N#CC(/C(=N/NC(=O)C(=O)NN)C(=O)NC12CC3CC(CC(C3)C1)C2)c1ccccc1 (configuration not stated) | – | > 100 µM
24 | CC(C)(C)C(=O)/C=C/c1ccc(Oc2ccccc2)cc1 | – | 52.8 µM

Row | SMILES | GI50 | TGI
25 | CN=NN(C)C(=O)NC | – | > 100 µM
26 | c1ccc2c3ccn4cc5c(cc4c-3nc2c1)CCCC5 | 5.62 µM | 27 µM
27 | CCCCCCCCCc1cc(=O)c2c(O)cccc2o1 | – | > 100 µM
28 | N#CC1Nc2ccccc2[C@@H](O)C1O (some centres not stated) | – | > 100 µM
29 | Cc1c(C2Nc3ccccc3C2C)[nH]c2ccccc12 (configuration not stated) | 12.4 µM | 28.8 µM
30 | CCN(CC)CC(C)(C)C(=O)/C=C/c1ccc(Cl)c(Cl)c1 | 1.59 µM | 3.1 µM
31 | CCOC(=O)CCc1c(C)c2c(OC(C)=O)cc(OC(C)=O)cc2oc1=O | – | 73.3 µM
32 | COc1cc(NC(C)CCCN)c2nccc(C)c2c1OC (configuration not stated) | 17.1 µM | 40.3 µM
33 | O=C(CN1CCCCC1)N1CCc2c([nH]c3ccccc23)C1c1cccnc1 (configuration not stated) | – | > 100 µM
34 | COC(=O)C12C3C4C5(C(=O)OC)C(C1C35C(=O)N(C(C)C)C(C)C)C42C(=O)N(C(C)C)C(C)C (configuration not stated) | – | > 50 µM
35 | CC(=O)O[C@@H]1C[C@]2(C(C)C)O[C@@]1(C)[C@@H]1CCC(C)=C1[C@@H]2OC(=O)/C=C/c1ccccc1 | 8.83 µM | 65.9 µM
36 | Cc1cc(C)n(CCNCCn2nc(C)cc2C)n1 | – | > 100 µM
37 | O=C1CSC(Cc2nc3ccccc3[nH]2)=N1 | – | 33.1 µM
38 | O=C(/C=C/c1ccccc1)/C=C/c1ccccc1 | – | > 100 µM
39 | N#C/C(=C\c1ccc(O)c(O)c1)C(N)=O | – | 51.6 µM
40 | N#CC(C#N)=c1[nH]c2cccc3c2-c2c(cccc2c3=C(C#N)C#N)[nH]1 | – | > 100 µM

Each molecule was assayed on SF-295 CNS (assay: inhibition of tumour cell growth, NCI panel, 48 h).

Row | SMILES | GI50 | TGI
41 | CC(=O)Oc1ccccc1C(=O)N=C1[Se]CCN1C(=O)c1ccccc1OC(C)=O | 1.43 µM | 2.8 µM
42 | O=S(O)CCCCSSCc1ccccc1CSSCCCCS(=O)O | – | 49.8 µM
43 | CCOC(=O)c1[nH]c(COC(C)=O)c(CCCOC(C)=O)c1CCCOC(C)=O | – | > 100 µM
44 | CSC1(CC(=O)N(C)C)C(=O)Nc2ccccc21 (configuration not stated) | – | > 100 µM
45 | COc1cc(/C=C2\C(=O)Nc3ccc(F)cc32)cc(OC)c1OC | > 100 µM | > 100 µM
46 | C#C[C@]1(O)CC[C@H]2[C@@H]3CC=C4c5sc(Nc6ccccc6)nc5CC[C@]4(C)[C@H]3CC[C@@]21C | 0.244 µM | 0.649 µM
47 | O=C(Nc1ccc([N+](=O)[O-])cc1)C1C(=O)C(=O)N(c2ccc([N+](=O)[O-])cc2)C1=O (configuration not stated) | – | > 100 µM
48 | Cc1cn2c(/C=C3/C(=O)Nc4ccccc43)c(-c3ccc(Cl)cc3)nc2s1 | 9.22 µM | 17.4 µM
49 | O=C(CCC/C(CC(=O)c1ccc(Br)cc1)=N\O)Nc1ccccc1 | – | > 100 µM
50 | O=C(/C=C/c1c(O)ccc2ccccc12)c1ccc2ccccc2c1 | – | > 100 µM
51 | CCOC(=O)C1N(S(=O)(=O)c2ccc(C)cc2)CCC12C(c1ccc(OC)cc1)NC1CCCCC12 (configuration not stated) | – | > 100 µM
52 | COc1ccccc1NC(=O)C1=C(C)NC(C)=C(C(=O)Nc2ccccc2OC)C1c1ccc([N+](=O)[O-])cc1 | – | 55.9 µM
53 | O=C(CSc1nnc(-c2ccccc2NC(=O)C(F)(F)F)c(=O)[nH]1)NC(=O)Nc1ccccc1 | – | > 100 µM
54 | O=C1c2ccn(CCCCNC(CO)(CO)CO)c2C(=O)c2c1c(O)c1ccccc1c2O | 0.719 µM | 2.24 µM
55 | COC(=O)/C=C/C1C(C(=O)OC)C2(C(=O)OC)CCC1(C(=O)OC)N2 (configuration not stated) | – | > 100 µM
56 | CC(C)(C)N1CC2(CCCCC2)C1=O | – | > 100 µM
57 | CC(=O)c1c(CBr)n([O-])c2ccccc2[n+]1=O | 19.8 µM | 43.8 µM
58 | C#CC(=O)Nc1cccc(Nc2nc3c(c(NCc4ccccc4)n2)CCCC3)c1 | 0.0152 µM | 0.0361 µM
59 | COc1ccc(C(=O)C(CO)Oc2ccccc2OC)cc1OC (configuration not stated) | – | > 100 µM
60 | N#CC(/C(=N/NC(=O)C(=O)NN)C(=O)NC12CC3CC(CC(C3)C1)C2)c1ccccc1 (configuration not stated) | – | > 100 µM
61 | CC(C)(C)C(=O)/C=C/c1ccc(Oc2ccccc2)cc1 | – | > 100 µM

Row | SMILES | GI50 | TGI
62 | CN=NN(C)C(=O)NC | – | > 100 µM
63 | Nc1c(C(=O)N/N=C/c2ccc(-c3ccc(Cl)cc3)o2)cnn1-c1ccnc2c(C(F)(F)F)cccc12 | > 100 µM | > 100 µM
64 | c1ccc2c3ccn4cc5c(cc4c-3nc2c1)CCCC5 | 2.37 µM | 10.5 µM
65 | CCCCCCCCCc1cc(=O)c2c(O)cccc2o1 | – | > 100 µM
66 | N#CC1Nc2ccccc2[C@@H](O)C1O (some centres not stated) | – | > 100 µM
67 | Cc1c(C2Nc3ccccc3C2C)[nH]c2ccccc12 (configuration not stated) | 11.5 µM | 28.1 µM
68 | CCN(CC)CC(C)(C)C(=O)/C=C/c1ccc(Cl)c(Cl)c1 | 1.74 µM | 3.22 µM
69 | CCN(CC)CCNCC(=O)Oc1ccc(/C=C/C(=O)CC(=O)/C=C/c2ccc(OC(=O)CNCCN(CC)CC)c(OC)c2)cc1OC | 5.55 µM | 22.2 µM
70 | CCOC(=O)CCc1c(C)c2c(OC(C)=O)cc(OC(C)=O)cc2oc1=O | – | > 100 µM
71 | COc1cc(NC(C)CCCN)c2nccc(C)c2c1OC (configuration not stated) | 17 µM | 32.5 µM
72 | O=C(CN1CCCCC1)N1CCc2c([nH]c3ccccc23)C1c1cccnc1 (configuration not stated) | – | > 100 µM
73 | COC(=O)C12C3C4C5(C(=O)OC)C(C1C35C(=O)N(C(C)C)C(C)C)C42C(=O)N(C(C)C)C(C)C (configuration not stated) | – | > 50 µM
74 | CC(=O)O[C@@H]1C[C@]2(C(C)C)O[C@@]1(C)[C@@H]1CCC(C)=C1[C@@H]2OC(=O)/C=C/c1ccccc1 | 38.6 µM | > 100 µM
75 | Cc1cc(C)n(CCNCCn2nc(C)cc2C)n1 | – | > 100 µM
76 | O=C1CSC(Cc2nc3ccccc3[nH]2)=N1 | – | 63.3 µM
77 | O=C(Nc1cccc(Cl)c1Cl)c1cccc(NC2=C(Cl)C(=O)N(Cc3ccccc3)C2=O)c1 | 35.7 µM | > 100 µM
78 | O=C(/C=C/c1ccccc1)/C=C/c1ccccc1 | – | > 100 µM
79 | N#C/C(=C\c1ccc(O)c(O)c1)C(N)=O | – | > 100 µM
80 | COc1cc2c(cc1OC)C13CCN4CC5=CCOC6CC(=O)N2C1C6C5CC43O (configuration not stated) | – | > 100 µM
81 | N#CC(C#N)=c1[nH]c2cccc3c2-c2c(cccc2c3=C(C#N)C#N)[nH]1 | – | > 100 µM
